Measurements reported in patent US20090215783A1, “COMPOSITION FOR INDUCTION OR INHIBITION OF STEM CELL DIFFERENTIATION” (CHOONGWAE PHARMA CORPORATION, priority 2006, published 2009).

Key:
[1] = system: human bone marrow derived-mesenchymal stem cells (hBMMSC); assay: Osteogenesis modulating activity assay by test compound alone (ALP activity); format: cell-based; conditions: Homo sapiens, 168 h; hBMMSC, 20 μM test compound alone, six to seven days; read-out: Osteogenesis: fold change of ALP activity compared with DMSO control
Description: Cell culture: Human bone marrow derived-mesenchymal stem cells (hBMMSC) were isolated from normal subjects.
Osteogenesis modulating activity assay by test compound alone: hBMMSC were cultivated in the culture medium and cells were seeded into 96-well culture plates and test compounds were dissolved in DMSO and diluted with culture media (final 0.01% DMSO) and added into the media (final concentration of test compound was 20 μM) and cultured in the CO2 incubator (37° C., 5% CO2). Culture medium was changed every two days with fresh one and compound was treated again whenever medium was changed. Six to seven days after incubation, Alkaline phosphatase activity of cell lysates was measured by colorimetry. For the determination of mineralization within the cells, Von Kossa staining or Alizarin Red S assay was performed 10-14 days after incubation.

[2] = system: Mouse embryonic stem (ES) cells, TC1; assay: Cardiomyogenesis modulating activity assay (alpha-MHC promoter EGFP, embryoid bodies, FACS/fluorescence microscopy); format: cell-based; conditions: embryoid bodies treated for 5 days, FACS
Description: a. Cell culture: Mouse embryonic stem (ES) cells, TC1 derived from 129/S6 strain were cultured on irradiated feeder layer in the culture medium which is high-glucose DMEM (Gibco) BRL, Germany) supplemented with 15% FBS (Hyclone), 0.1 mM beta-mercaptoethanol, […] sodium pyruvate, 1 mM L-glutamine and 1× non-essential amino acids.
b. Establishment of alpha-MHC stably transformed ES cell line: A construct (FIG. 8) containing 1.8 kb promoter sequence of the mouse alpha-MHC gene between EcoRI and SalI sites of pEGFP-1 (Clontech Laboratories, Inc, CA, USA) was linearized at XhoI site, and was introduced into mouse ES cells, TC1, using the Gene Pulser II (BioRad, MA). A selection medium containing G418 was applied for two weeks from 24 hours after electroporation. The selected ES cell clones were harvested and expanded on the feeder cell layer. The green fluorescence-expressing clones when differentiated into cardiomyocytes were used in this experiment.
c. Cardiomyogenesis modulating activity assay: Embryoid body (EB) was formed by hanging drop culture using about a number of 600 (six hundred) ES cells for two days and it was further expanded by culturing in suspension condition on a Petri-dish for another two days. Then each EB was plated on a well of 96 well culture plates. Test compounds were dissolved in DMSO and diluted with culture media (final 0.05% DMSO) and EB was treated with test compound for 5 days. Culture medium was changed every three days after plating. Expression level of EGFP was measured with FACS (Beckman). For FACS analysis, differentiating cells were dissociated with trypsin. For the determination of the extent of differentiation, EB was observed and photographed with an inverted fluorescence microscope (Zeiss, Germany). Number of beating EBs was counted under the microscope and recorded once daily.

| Compound | fold induction at 20 µM [1] | Cardiomyogenesis: fold change of EGFP expression level compared with DMSO control [2] |
| --- | --- | --- |
| CN1CC(=O)N2[C@@H](Cc3ccc(Cl)cc3)C(=O)N(CCCc3ccccc3)C[C@@H]2N1C(=O)NCc1ccccc1 [#29] | 0.91 | 1.71 fold |
| CCCCN1C[C@H]2N(C(=O)CN(C)N2C(=O)NCc2ccccc2)[C@@H](Cc2ccc(Cl)cc2)C1=O [#30] | 1.12 | 1.75 fold |
| CN1CC(=O)N2[C@H](Cc3ccccc3)C(=O)N(CCc3ccccc3)C[C@H]2N1C(=O)NCc1ccccc1 [#31] | 1 | 1.10 fold |
| CN1CC(=O)N2[C@@H](COCc3ccccc3)C(=O)N(CCc3ccccc3)C[C@@H]2N1C(=O)NCc1ccccc1 [#32] | 0.94 | 0.95 fold |
| CN1CC(=O)N2[C@@H](CCc3ccccc3)C(=O)N(CCc3ccccc3)C[C@@H]2N1C(=O)NCc1ccccc1 [#33] | 1.85 | 0.28 fold |
| COc1ccc(C[C@H]2C(=O)N(CCc3ccccc3)C[C@H]3N2C(=O)CN(C)N3C(=O)NCc2ccccc2)cc1 [#34] | 1.03 | 1.71 fold |
| CN1CC(=O)N2[C@@H](Cc3ccc(OCc4ccccc4)cc3)C(=O)N(CCc3ccccc3)C[C@@H]2N1C(=O)NCc1ccccc1 [#35] | 0.94 | 1.03 fold |
| Cc1ccc(C[C@H]2C(=O)N(CCc3ccccc3)C[C@H]3N2C(=O)CN(C)N3C(=O)NCc2ccccc2)cc1 [#36] | 1.55 | 0.54 fold |
| CN1CC(=O)N2[C@@H](CC3CCCCC3)C(=O)N(CCc3ccccc3)C[C@@H]2N1C(=O)NCc1ccccc1 [#37] | 0.95 | 0.98 fold |
| CN1CC(=O)N2[C@@H](Cc3ccc(F)cc3)C(=O)N(CCc3ccccc3)C[C@@H]2N1C(=O)NCc1ccccc1 [#38] | 0.48 | 0.69 fold |
| CN1CC(=O)N2[C@@H](Cc3ccc(Cl)cc3)C(=O)N(CCc3ccccc3)C[C@@H]2N1C(=O)NCc1ccccc1 [#39] | 0.79 | 0.29 fold |
| CCCCNC(=O)N1[C@H]2CN(CCCCc3ccccc3)C(=O)[C@H](Cc3ccc(O)cc3)N2C(=O)CN1Cc1cccc(F)c1 [#40] | 0.69 | 1.11 fold |
| CCCCNC(=O)N1[C@H]2CN(CCCCc3ccccc3)C(=O)[C@H](C(C)CC)N2C(=O)CN1Cc1cccc(F)c1 (stereo partly drawn) [#41] | 0.6 | 2.15 fold |
| CCCCNC(=O)N1[C@H]2CN(CCCCc3ccccc3)C(=O)[C@H](CCC)N2C(=O)CN1Cc1cccc(F)c1 [#42] | 0.31 | 1.87 fold |
| CCCCNC(=O)N1C2CN(CCCCc3ccccc3)C(=O)C(CC(=O)O)N2C(=O)CN1Cc1cccc(F)c1 (stereo not drawn) [#43] | 0.33 | 1.17 fold |
| CCCCNC(=O)N1[C@H]2CN(CCCCc3ccccc3)C(=O)[C@H](CCC(=O)O)N2C(=O)CN1Cc1cccc(F)c1 [#44] | 0.56 | 1.98 fold |
| CCCCNC(=O)N1[C@H]2CN([C@@H](C)c3ccccc3)C(=O)[C@H](CC(C)C)N2C(=O)CN1Cc1ccc(C)cc1 [#46] | 1.02 | 1.90 fold |

| Compound | fold induction at 20 µM [1] | Cardiomyogenesis: fold change of EGFP expression level compared with DMSO control [2] |
| --- | --- | --- |
| C#CCN1CC(=O)N2C(Cc3ccc(C)cc3)C(=O)N(CCCCCCC)C[C@@H]2N1C(=O)NCc1ccccc1 (stereo partly drawn) [#51] | 0.31 | 0.49 fold |
| CC(C)[C@H]1C(=O)N(Cc2cccc(F)c2)C[C@H]2N1C(=O)CN(Cc1ccccc1)N2C(=O)NCc1ccccc1 [#55] | 0.98 | 1.26 fold |
| CCC(C)[C@H]1C(=O)N(Cc2cccc(F)c2)C[C@H]2N1C(=O)CN(Cc1ccccc1)N2C(=O)NCc1ccccc1 (stereo partly drawn) [#57] | 0.64 | 0.43 fold |
| CC(C)C[C@@H]1C(=O)N(Cc2cccc(C(F)(F)F)c2)C[C@@H]2N1C(=O)CN(Cc1ccc(F)cc1)N2C(=O)NCc1ccccc1 [#63] | 0.41 | 0.47 fold |
| O=C1[C@H](CCc2ccccc2)N2C(=O)CN(Cc3ccc(F)cc3)N(C(=O)NCc3ccccc3)[C@H]2CN1Cc1cccc(C(F)(F)F)c1 [#64] | 0.79 | 2.83 fold |
| COc1ccc(C[C@H]2C(=O)N(Cc3cccc(C(F)(F)F)c3)C[C@H]3N2C(=O)CN(Cc2ccc(F)cc2)N3C(=O)NCc2ccccc2)cc1 [#65] | 1.34 | 2.54 fold |
| Cc1ccc(C[C@H]2C(=O)N(Cc3cccc(C(F)(F)F)c3)C[C@H]3N2C(=O)CN(Cc2ccc(F)cc2)N3C(=O)NCc2ccccc2)cc1 [#67] | 0.8 | 1.50 fold |
| CC[C@H]1C(=O)N(Cc2cccc(C(F)(F)F)c2)C[C@H]2N1C(=O)CN(Cc1ccc(F)cc1)N2C(=O)NCc1ccccc1 [#68] | 0.91 | 0.69 fold |
| O=C1[C@H](CC2CCCCC2)N2C(=O)CN(Cc3ccc(F)cc3)N(C(=O)NCc3ccccc3)[C@H]2CN1Cc1cccc(C(F)(F)F)c1 [#69] | 0.71 | 1.69 fold |
| O=C1[C@H](Cc2ccc(F)cc2)N2C(=O)CN(Cc3ccc(F)cc3)N(C(=O)NCc3ccccc3)[C@H]2CN1Cc1cccc(C(F)(F)F)c1 [#70] | 1.03 | 0.92 fold |
| O=C1[C@H](Cc2ccc(Cl)cc2)N2C(=O)CN(Cc3ccc(F)cc3)N(C(=O)NCc3ccccc3)[C@H]2CN1Cc1cccc(C(F)(F)F)c1 [#72] | 0.84 | 1.76 fold |
| O=C1[C@H](COCc2ccccc2)N2C(=O)CN(Cc3ccccc3)N(C(=O)NCc3ccccc3)[C@H]2CN1CCc1ccc(Cl)cc1 [#73] | 0.64 | 1.57 fold |
| CC(C)C[C@@H]1C(=O)N(CCc2ccc(Cl)cc2)CC2N1C(=O)CN(Cc1ccccc1)N2C(=O)NCc1ccccc1 (stereo partly drawn) [#74] | 0.54 | 1.59 fold |
| O=C1[C@H](CCc2ccccc2)N2C(=O)CN(Cc3ccccc3)N(C(=O)NCc3ccccc3)[C@H]2CN1CCc1ccc(Cl)cc1 [#75] | 1.16 | 0.50 fold |
| COc1ccc(C[C@H]2C(=O)N(CCc3ccc(Cl)cc3)C[C@H]3N2C(=O)CN(Cc2ccccc2)N3C(=O)NCc2ccccc2)cc1 [#76] | 1.58 | 1.24 fold |
| O=C1[C@H](Cc2ccc(OCc3ccccc3)cc2)N2C(=O)CN(Cc3ccccc3)N(C(=O)NCc3ccccc3)[C@H]2CN1CCc1ccc(Cl)cc1 [#77] | 0.98 | 1.40 fold |
